Converted amounts (≈) assume the structure as drawn. Like-named read-outs stand apart in the source and are kept apart here. Marks after values point to notes of the source that are not given here. Peptide text beside a SMILES is read from it.
Columns and labels:
[1] = tested on: methane production by stool samples from IBS-C patients; experiment: Methane production by human stool in vitro; type: cell-based
From the text: Data are change from baseline (ΔCH4 ppm) in headspace methane. […] Error bars are SD. P values are significance of change from baseline (paired t-test).
The second principle, without wishing to be bound by theory, is to reduce the pre-systemic conversion of lovastatin lactone to the β-hydroxyacid metabolite. […] Conversion of lovastatin lactone to β-hydroxyacid occurs in stomach acid and through the action of plasma, intestinal and liver esterases; some conversion may also be catalysed by intestinal bacteria.
The potential methane-reducing effect of lovastatin lactone concentrations in the stool of healthy volunteers was estimated by comparison of stool concentrations to lovastatin lactone concentrations used to inhibit methane production in stool samples from an IBS-C patient in vitro.

[2] = pylorus-ligated rats, within 30 minutes; cited from earlier work
M. smithii = M. smithii colonized high-fat diet rats, qPCR of bowel segments; type: in vivo, Sprague-Dawley rats
Description: The rats were assessed for increased M. smithii by qPCR before and after the diet, and then divided into 3 groups. […] Each group was gavaged daily for 10 days. Three day stool collections were performed to assess average stool wet weight and daily variability prior to commencing the high fat diet, after 7 weeks of high-fat diet, and the final days of the lovastatin gavage (still on high-fat diet). On day 10 of the gavage, rats were euthanized and DNA was extracted from contents of ligated bowel segments (duodenum, jejunum, ileum, cecum and left colon). qPCR was performed using primers for total luminal bacteria and M. smithii.

[3] = cited from earlier work
IBS-C patients = settings: published trial, 12 weeks; drug arm; cited from earlier work
[4] = Binary stress testing of lovastatin with formulation excipients (HPLC); settings: alone, over a range of conditions
Description: The compatibility of lovastatin drug substance with formulation excipients was evaluated in binary stress testing studies where 1:1 mixtures of lovastatin and each excipient were stored for 7 days under different conditions of temperature and relative humidity (RH). Samples were analyzed by HPLC (based on USP methods) at day 0 and day 7.

[5] = cited from earlier work; remark: listed apart in the source
[6] = tested on: human and rat fecal bacterial enzyme fractions; settings: 12 h incubation; cited from earlier work
physchem = settings: for solubility: Solubility (room temp)
From the text: Lovastatin was produced, analyzed and released using methodology known in the art.

[7] = stool samples from IBS-C patients in vitro
[8] = Cecum, 1.5 mg/rat daily for 10 days
[9] = Duodenum, 1.5 mg/rat gavage daily for 10 days
[10] = Jejunum, 1.5 mg/rat daily for 10 days
[11] = Left Colon, 1.5 mg/rat daily for 10 days

CC(C)c1c(C(=O)Nc2ccccc2)c(-c2ccccc2)c(-c2ccc(F)cc2)n1CC[C@@H](O)C[C@@H](O)CC(=O)O [atorvastatin]
inhibition of methane production [1, 7]: ineffective

CC(C)c1nc(N(C)S(C)(=O)=O)nc(-c2ccc(F)cc2)c1/C=C/[C@@H](O)C[C@@H](O)CC(=O)O [rosuvastatin]
inhibition of methane production [1, 7]: ineffective

CC[C@H](C)C(=O)O[C@H]1C[C@@H](C)C=C2C=C[C@H](C)[C@H](CC[C@@H](O)C[C@@H](O)CC(=O)O)[C@H]21 [lovastatin β-hydroxyacid]
intragastric dose exiting the gastric juice [2]: ~30% | M. smithii/Total Bacteria (M. smithii; [8]): 0.14 | M. smithii/Total Bacteria (M. smithii; [9]): 1.41 | M. smithii/Total Bacteria (M. smithii; [10]): 0.29 | M. smithii/Total Bacteria (M. smithii; [11]): 0.0024 | inhibition of methane production [1, 7]: ineffective | absorption of orally-administered dose ([3]; human, in vivo, po): 82-100%

CC(C)C[C@H](NC(=O)[C@@H]1CSSC[C@@H]2NC(=O)[C@H](CC(C)C)NC(=O)[C@H](CCC(=O)O)NC(=O)[C@@H](NC(=O)[C@H](CCC(=O)O)NC(=O)[C@H](CC(=O)O)NC(=O)[C@@H](N)CC(N)=O)CSSC[C@H](NC(=O)[C@H](C)NC(=O)[C@H](C(C)C)NC(=O)[C@H](CC(N)=O)NC(=O)[C@H](C(C)C)NC2=O)C(=O)N[C@@H]([C@@H](C)O)C(=O)NCC(=O)N1)C(=O)O [Plecanatide] (HELM PEPTIDE1{N.D.E.C.E.L.C.V.N.V.A.C.T.G.C.L}$PEPTIDE1,PEPTIDE1,4:R3-12:R3|PEPTIDE1,PEPTIDE1,7:R3-15:R3$$$V2.0)
Diarrhea Incidence, % Subjects (IBS-C patients): 4.3 (1.0) % | Overall Response, % Subjects (IBS-C patients): 25.7 (15.9) %

C[C@@H]1NC(=O)[C@@H]2CCCN2C(=O)[C@H](CC(N)=O)NC(=O)[C@@H]2CSSC[C@H](N)C(=O)N[C@H]3CSSC[C@H](NC1=O)C(=O)N[C@@H]([C@@H](C)O)C(=O)NCC(=O)N[C@H](C(=O)N[C@@H](Cc1ccc(O)cc1)C(=O)O)CSSC[C@H](NC(=O)[C@H](Cc1ccc(O)cc1)NC(=O)[C@H](CCC(=O)O)NC3=O)C(=O)N2 [Linaclotide] (HELM PEPTIDE1{C.C.E.Y.C.C.N.P.A.C.T.G.C.Y}$PEPTIDE1,PEPTIDE1,1:R3-6:R3|PEPTIDE1,PEPTIDE1,2:R3-10:R3|PEPTIDE1,PEPTIDE1,5:R3-13:R3$$$V2.0)
Abdominal Pain Response, % Subjects (IBS-C patients): 49.5 (36.0) % | Bloating Response, % Subjects (IBS-C patients): 43.2 (26.8) % | CSBM Response, % Subjects (IBS-C patients): 48.2 (26.1) % | Diarrhea Incidence, % Subjects (IBS-C patients): 19.3 (2.8) % | Overall Response, % Subjects (IBS-C patients): 33.6 (17.4) %

CC[C@H](C)C(=O)O[C@H]1C[C@@H](C)C=C2C=C[C@H](C)[C@H](CC[C@@H]3C[C@@H](O)CC(=O)O3)[C@H]21 [Lovastatin]
intragastric dose exiting the gastric juice [2]: ~30% | stability in binary stress testing [4]: stable | pre-portal hydrolysis in vivo after oral administration [5]: ~10% | loss of lovastatin lactone [6]: 8-19% | M. smithii/Total Bacteria (M. smithii; [8]): 0.20 | M. smithii/Total Bacteria (M. smithii; [9]): 1.30 | M. smithii/Total Bacteria (M. smithii; Ileum, 1.5 mg/rat daily for 10 days, listed as Lactone): 0.19* | M. smithii/Total Bacteria (M. smithii; Ileum, 1.5 mg/rat daily for 10 days, listed as lovastatin lactone): reduced | M. smithii/Total Bacteria (M. smithii; [10]): 0.12 | M. smithii/Total Bacteria (M. smithii; [11]): 0.0029 | Solubility (room temp) (physchem): methanol 28 mg/mL | solubility (physchem; organic solvent or mixture): 16000 µg/mL (≈ 39.6 mM) | solubility (physchem; water): 0.4 µg/mL (≈ 0.000989 mM) | inhibition of methane AUC0-270 ([1]; 0.2 mg/g stool, regression): 85-90% | methane AUC0-270 as percentage of the control value ([1]; 0.2 mg/g stool, regression): 10-15% | reduction of methane production ([1]; lovastatin lactone 0.04 mg/g stool, human stool in vitro): ~60% | inhibition of methane production ([1]; lovastatin lactone 0.21-0.25 mg/g stool, in vitro): ~90% | inhibition of methane production [1, 7]: only effective statin inhibitor | absorption of orally-administered dose ([3]; human subjects, immediate release dosage form): ~31%

CCCCC(F)(F)[C@@]1(O)CC[C@H]2[C@@H](CC(=O)[C@@H]2CCCCCCC(=O)O)O1 [Lubiprostone]
Abdominal Pain Response, % Subjects (IBS-C patients): 36.7 (25.2) % | Bloating Response, % Subjects (IBS-C patients): 32.0 (25.1) % | Overall Response, % Subjects (IBS-C patients): 26.3 (15.3) %

CN1Cc2c(Cl)cc(Cl)cc2[C@H](c2cccc(S(=O)(=O)NCCOCCOCCNC(=O)NCCCCNC(=O)NCCOCCOCCNS(=O)(=O)c3cccc([C@@H]4CN(C)Cc5c(Cl)cc(Cl)cc54)c3)c2)C1 [Tenapanor]
Abdominal Pain Response, % Subjects (IBS-C patients): 65.5 (48.3) % | Bloating Response, % Subjects (IBS-C patients): 59.5 (41.6) % | CSBM Response, % Subjects (IBS-C patients): 60.7 (33.7) % | Diarrhea Incidence, % Subjects (IBS-C patients): 11.2 (0.0) % | Overall Response, % Subjects (IBS-C patients): 50.0 (23.6) %

— patent US20200390742A1, “CLINICALLY EFFICACIOUS ANTI-METHANOGENIC COMPOSITIONS AND USES” (Cedars-Sinai Medical Center, priority 2016, published 2020)
